Values joined by “and” are separate entries in the source; they are usually repeats but may differ in a detail not shown here. Equal values may be shown once.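 Test compounds were applied to cells in 96-well plates for 48 hours at 5 doses. Abbreviation: GI50, concentration required for 50% inhibition of growth. TGI: concentration producing complete growth inhibition.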
Experiments:
Test in all cases: inhibition of tumour cell growth, NCI panel, 48 h
786-0 renal = system: 786-0 renal
A498 renal = system: A498 renal
A549 NSCLC = system: A549 NSCLC
ACHN renal = system: ACHN renal
BT-549 breast = system: BT-549 breast
CAKI-1 renal = system: CAKI-1 renal
CCRF-CEM leukemia = system: CCRF-CEM leukemia
COLO 205 colon = system: COLO 205 colon
DU-145 prostate = system: DU-145 prostate
EKVX NSCLC = system: EKVX NSCLC
HCC-2998 colon = system: HCC-2998 colon
HCT-116 colon = system: HCT-116 colon
HCT-15 colon = system: HCT-15 colon
HL-60(TB) leukemia = system: HL-60(TB) leukemia
HOP-62 NSCLC = system: HOP-62 NSCLC
HOP-92 NSCLC = system: HOP-92 NSCLC
HS 578T breast = system: HS 578T breast
HT29 colon = system: HT29 colon
IGROV1 ovarian = system: IGROV1 ovarian
K-562 leukemia = system: K-562 leukemia
KM12 colon = system: KM12 colon
LOX IMVI melanoma = system: LOX IMVI melanoma
M14 melanoma = system: M14 melanoma
MALME-3M melanoma = system: MALME-3M melanoma
MCF7 breast = system: MCF7 breast
MDA-MB-231 breast = system: MDA-MB-231 breast
MDA-MB-435 = system: MDA-MB-435
MOLT-4 leukemia = system: MOLT-4 leukemia
NCI-H226 lung = system: NCI-H226 lung
NCI-H23 lung = system: NCI-H23 lung
NCI-H460 lung = system: NCI-H460 lung
NCI-H522 lung = system: NCI-H522 lung
NCI/ADR-RES ovarian = system: NCI/ADR-RES ovarian
OVCAR-3 ovarian = system: OVCAR-3 ovarian
OVCAR-4 ovarian = system: OVCAR-4 ovarian
OVCAR-5 ovarian = system: OVCAR-5 ovarian
OVCAR-8 ovarian = system: OVCAR-8 ovarian
PC-3 prostate = system: PC-3 prostate
RPMI-8226 leukemia = system: RPMI-8226 leukemia
RXF 393 renal = system: RXF 393 renal
SF-268 CNS = system: SF-268 CNS
SF-295 CNS = system: SF-295 CNS
SF-539 CNS = system: SF-539 CNS
SK-MEL-2 melanoma = system: SK-MEL-2 melanoma
SK-MEL-28 melanoma = system: SK-MEL-28 melanoma
SK-MEL-5 melanoma = system: SK-MEL-5 melanoma
SK-OV-3 ovarian = system: SK-OV-3 ovarian
SN12C renal = system: SN12C renal
SNB-19 CNS = system: SNB-19 CNS
SNB-75 CNS = system: SNB-75 CNS
SR leukemia = system: SR leukemia
SW-620 colon = system: SW-620 colon
T-47D breast = system: T-47D breast
TK-10 renal = system: TK-10 renal
U251 CNS = system: U251 CNS
UACC-257 melanoma = system: UACC-257 melanoma
UACC-62 melanoma = system: UACC-62 melanoma
UO-31 renal = system: UO-31 renal

NC(=O)c1ccc(-c2nc(-c3ccc4c(c3)OCO4)c(-c3ccccn3)[nH]2)cc1
GI50 (786-0 renal): > 25 µM and 36.4 µM | TGI (786-0 renal): > 100 µM | GI50 (A498 renal): > 25 µM and 27.2 µM | TGI (A498 renal): > 79.3 µM | GI50 (A549 NSCLC): > 25 µM and 27.7 µM | TGI (A549 NSCLC): > 100 µM | GI50 (ACHN renal): > 25 µM and 34 µM | TGI (ACHN renal): > 100 µM | GI50 (BT-549 breast): > 25 µM and 22.5 µM | TGI (BT-549 breast): > 96.7 µM | GI50 (CAKI-1 renal): > 25 µM and 22.7 µM | TGI (CAKI-1 renal): > 100 µM | GI50 (CCRF-CEM leukemia): > 25 µM and 38.4 µM | TGI (CCRF-CEM leukemia): > 100 µM | GI50 (COLO 205 colon): > 25 µM and 31.4 µM | TGI (COLO 205 colon): > 100 µM | GI50 (DU-145 prostate): > 25 µM and 38.7 µM | TGI (DU-145 prostate): > 100 µM | GI50 (EKVX NSCLC): > 25 µM and 44.9 µM | TGI (EKVX NSCLC): > 100 µM | GI50 (HCC-2998 colon): > 25 µM and 30.9 µM | TGI (HCC-2998 colon): > 100 µM | GI50 (HCT-116 colon): > 25 µM and 30.4 µM | TGI (HCT-116 colon): > 100 µM | GI50 (HCT-15 colon): > 25 µM and 23 µM | TGI (HCT-15 colon): > 25 µM and 63.6 µM | GI50 (HL-60(TB) leukemia): > 25 µM and 29.6 µM | TGI (HL-60(TB) leukemia): > 25 µM and 69.1 µM | GI50 (HOP-62 NSCLC): > 25 µM and 43 µM | TGI (HOP-62 NSCLC): > 100 µM | GI50 (HOP-92 NSCLC): > 25 µM and 11.4 µM | TGI (HOP-92 NSCLC): > 84.6 µM | GI50 (HS 578T breast): > 25 µM and 28.2 µM | TGI (HS 578T breast): > 100 µM | GI50 (HT29 colon): > 25 µM and 28.3 µM | TGI (HT29 colon): > 93.8 µM | GI50 (IGROV1 ovarian): > 25 µM and 34.2 µM | TGI (IGROV1 ovarian): > 100 µM | GI50 (K-562 leukemia): > 25 µM and 37.2 µM | TGI (K-562 leukemia): > 100 µM | GI50 (KM12 colon): > 25 µM and 35.7 µM | TGI (KM12 colon): > 100 µM | GI50 (LOX IMVI melanoma): > 25 µM and 26.9 µM | TGI (LOX IMVI melanoma): > 84.4 µM | GI50 (M14 melanoma): > 25 µM and 38.1 µM | TGI (M14 melanoma): > 100 µM | GI50 (MALME-3M melanoma): > 25 µM and 38.2 µM | TGI (MALME-3M melanoma): > 100 µM | GI50 (MCF7 breast): > 25 µM and 31.9 µM | TGI (MCF7 breast): > 83.8 µM | GI50 (MDA-MB-231 breast): 21.3 µM and 14.8 µM | TGI (MDA-MB-231 breast): > 25 µM and 59.1 µM | GI50 (MDA-MB-435): > 25 µM and 38.6 µM | TGI (MDA-MB-435): > 100 µM | GI50 (MOLT-4 leukemia): > 25 µM and 38.8 µM | TGI (MOLT-4 leukemia): > 100 µM | GI50 (NCI-H226 lung): > 25 µM and 22.2 µM | TGI (NCI-H226 lung): > 63.1 µM | GI50 (NCI-H23 lung): > 25 µM and 46.3 µM | TGI (NCI-H23 lung): > 100 µM | GI50 (NCI-H460 lung): > 25 µM and 23.3 µM | TGI (NCI-H460 lung): > 84.7 µM | GI50 (NCI-H522 lung): > 25 µM and 22.3 µM | TGI (NCI-H522 lung): > 25 µM and 72.5 µM | GI50 (NCI/ADR-RES ovarian): > 25 µM and 32.3 µM | TGI (NCI/ADR-RES ovarian): > 100 µM | GI50 (OVCAR-3 ovarian): > 25 µM and 35.3 µM | TGI (OVCAR-3 ovarian): > 100 µM | GI50 (OVCAR-4 ovarian): > 25 µM and 31.1 µM | TGI (OVCAR-4 ovarian): > 100 µM | GI50 (OVCAR-5 ovarian): > 25 µM and 32 µM | TGI (OVCAR-5 ovarian): > 100 µM | GI50 (OVCAR-8 ovarian): > 25 µM and 34.1 µM | TGI (OVCAR-8 ovarian): > 100 µM | GI50 (PC-3 prostate): > 25 µM and 43.2 µM | TGI (PC-3 prostate): > 100 µM | GI50 (RPMI-8226 leukemia): 24.3 µM and 20.7 µM | TGI (RPMI-8226 leukemia): > 69.6 µM | GI50 (RXF 393 renal): > 25 µM and 12.6 µM | TGI (RXF 393 renal): > 25 µM and 49.4 µM | GI50 (SF-268 CNS): > 25 µM and 50.7 µM | TGI (SF-268 CNS): > 100 µM | GI50 (SF-295 CNS): > 25 µM and 24.9 µM | TGI (SF-295 CNS): > 25 µM and 79.1 µM | GI50 (SF-539 CNS): > 25 µM and 49 µM | TGI (SF-539 CNS): > 100 µM | GI50 (SK-MEL-2 melanoma): > 25 µM and 35.8 µM | TGI (SK-MEL-2 melanoma): > 100 µM | GI50 (SK-MEL-28 melanoma): > 25 µM and 51.1 µM | TGI (SK-MEL-28 melanoma): > 100 µM | GI50 (SK-MEL-5 melanoma): > 25 µM and 15.1 µM | TGI (SK-MEL-5 melanoma): > 25 µM and 29.2 µM | GI50 (SK-OV-3 ovarian): > 25 µM and 39.5 µM | TGI (SK-OV-3 ovarian): > 100 µM | GI50 (SN12C renal): > 25 µM and 42.2 µM | TGI (SN12C renal): > 100 µM | GI50 (SNB-19 CNS): > 25 µM and 54.6 µM | TGI (SNB-19 CNS): > 100 µM | GI50 (SNB-75 CNS): > 16.5 µM and 21.3 µM | TGI (SNB-75 CNS): > 90.8 µM | GI50 (SR leukemia): > 25 µM and 20.4 µM | TGI (SR leukemia): > 100 µM | GI50 (SW-620 colon): > 25 µM and 65.6 µM | TGI (SW-620 colon): > 100 µM | GI50 (T-47D breast): > 25 µM and 21.8 µM | TGI (T-47D breast): > 100 µM | GI50 (TK-10 renal): > 25 µM and 47.7 µM | TGI (TK-10 renal): > 100 µM | GI50 (U251 CNS): > 25 µM and 44.5 µM | TGI (U251 CNS): > 100 µM | GI50 (UACC-257 melanoma): > 64.3 µM | TGI (UACC-257 melanoma): > 100 µM | GI50 (UACC-62 melanoma): > 25 µM and 35.1 µM | TGI (UACC-62 melanoma): > 100 µM | GI50 (UO-31 renal): > 25 µM and 32.3 µM | TGI (UO-31 renal): > 100 µM

Source: PubChem BioAssay (NCI)
